# Measured values reported in ChEMBL document CHEMBL5390317, “Novel Indane-Containing NBTIs with Potent Anti-Gram-Negative Activity and Minimal hERG Inhibition” (ACS Med Chem Lett, 2023).
# Tests used:
# [1] = Stability in mouse plasma; assay type: ADME, cell-free
# [2] = tested on: Acinetobacter baumannii; test: Antibacterial activity against Acinetobacter baumannii ATCC BAA-747 assessed as inhibition in bacterial growth incubated for 20 to 24 hrs by CLSI based broth microdilution method; assay type: functional; details: Acinetobacter baumannii, ATCC BAA-747, time 20-24 hrs; read-out: MIC
# [3] = target: T1, hERG (KCNH2) (Homo sapiens, UniProt Q12809); test: Inhibition of hERG potassium channel expressed in CHO cells at 1 uM by electrophysiological patch clamp assay relative to control; assay type: toxicity, cell-based; details: CHO cells expressing hERG
# T1 sequence (Q12809 whole entry): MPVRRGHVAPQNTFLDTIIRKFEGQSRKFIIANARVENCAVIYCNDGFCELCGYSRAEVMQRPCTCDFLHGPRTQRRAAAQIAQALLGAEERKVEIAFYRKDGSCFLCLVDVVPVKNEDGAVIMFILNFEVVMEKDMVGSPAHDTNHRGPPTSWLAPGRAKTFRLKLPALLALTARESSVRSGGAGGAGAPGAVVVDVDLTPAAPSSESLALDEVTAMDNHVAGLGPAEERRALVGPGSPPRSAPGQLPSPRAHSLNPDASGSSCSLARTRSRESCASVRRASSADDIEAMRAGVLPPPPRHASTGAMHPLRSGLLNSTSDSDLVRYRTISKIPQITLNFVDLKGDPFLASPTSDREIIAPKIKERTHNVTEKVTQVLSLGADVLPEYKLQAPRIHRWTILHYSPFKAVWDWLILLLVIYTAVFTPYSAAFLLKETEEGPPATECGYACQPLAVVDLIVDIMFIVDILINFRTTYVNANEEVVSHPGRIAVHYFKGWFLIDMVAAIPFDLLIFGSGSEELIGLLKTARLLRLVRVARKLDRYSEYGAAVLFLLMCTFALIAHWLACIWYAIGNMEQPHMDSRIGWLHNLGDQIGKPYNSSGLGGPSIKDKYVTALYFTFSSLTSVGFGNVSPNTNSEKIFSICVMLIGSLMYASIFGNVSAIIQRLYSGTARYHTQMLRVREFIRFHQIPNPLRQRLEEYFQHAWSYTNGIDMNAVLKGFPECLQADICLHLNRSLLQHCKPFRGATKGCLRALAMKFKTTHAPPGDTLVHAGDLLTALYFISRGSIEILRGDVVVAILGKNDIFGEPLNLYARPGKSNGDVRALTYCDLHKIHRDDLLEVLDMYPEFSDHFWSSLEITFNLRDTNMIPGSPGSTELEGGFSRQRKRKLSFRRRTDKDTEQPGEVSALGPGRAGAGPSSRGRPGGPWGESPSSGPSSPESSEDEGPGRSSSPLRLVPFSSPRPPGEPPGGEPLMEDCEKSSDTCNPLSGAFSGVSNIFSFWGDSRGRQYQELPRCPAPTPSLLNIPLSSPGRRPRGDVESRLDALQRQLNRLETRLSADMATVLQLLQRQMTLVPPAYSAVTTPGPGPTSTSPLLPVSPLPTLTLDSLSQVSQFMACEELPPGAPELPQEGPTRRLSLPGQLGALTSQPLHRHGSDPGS
# [4] = tested on: Escherichia coli; test: Antibacterial activity against Escherichia coli K-12 BW25113 assessed as inhibition in bacterial growth incubated for 20 to 24 hrs by CLSI based broth microdilution method; assay type: functional; details: Escherichia coli, K-12 BW25113, time 20-24 hrs; read-out: MIC
# [5] = tested on: Escherichia coli; test: Antibacterial activity against Escherichia coli ATCC BAA-2340 assessed as inhibition in bacterial growth incubated for 20 to 24 hrs by CLSI based broth microdilution method; assay type: functional; details: Escherichia coli, ATCC BAA-2340, time 20-24 hrs; read-out: MIC
# [6] = tested on: Escherichia coli; test: Antibacterial activity against Escherichia coli K-12 BW25113 deltaTolC assessed as inhibition in bacterial growth incubated for 20 to 24 hrs by CLSI based broth microdilution method; assay type: functional; details: time 20-24 hrs
# [7] = tested on: Escherichia coli; test: Antibacterial activity against Escherichia coli ATCC 25922 assessed as inhibition in bacterial growth incubated for 20 to 24 hrs by CLSI based broth microdilution method; assay type: functional; details: time 20-24 hrs
# [8] = target: T1, hERG (KCNH2); test: Inhibition of hERG potassium channel expressed in CHO cells at 10 uM by electrophysiological patch clamp assay relative to control; assay type: toxicity, cell-based; details: CHO cells expressing hERG
# [9] = Stability in rat plasma assessed as parent compound remaining after 5 hrs relative to control; assay type: ADME, cell-free; details: read-out: Stability
# [10] = tested on: Staphylococcus aureus; test: Antibacterial activity against Staphylococcus aureus ATCC BAA-1556 assessed as inhibition in bacterial growth incubated for 20 to 24 hrs by CLSI based broth microdilution method; assay type: functional; details: Staphylococcus aureus, ATCC BAA-1556, time 20-24 hrs; read-out: MIC
# [11] = target: T1, hERG (KCNH2); test: (§1) Inhibition of hERG potassium channel expressed in CHO cells by electrophysiological patch clamp assay; assay type: toxicity, cell-based; details: human, CHO cells expressing hERG
# [12] = target: Voltage-gated inwardly rectifying potassium channel KCNH2 (Homo sapiens, UniProt Q12809); test: as §1; assay type: toxicity, cell-based
# Voltage-gated inwardly rectifying potassium channel KCNH2, sequence (Q12809 whole entry): as above
# [13] = tested on: Klebsiella pneumoniae; test: Antibacterial activity against Klebsiella pneumoniae ATCC BAA-1705 assessed as inhibition in bacterial growth incubated for 20 to 24 hrs by CLSI based broth microdilution method; assay type: functional; details: time 20-24 hrs
# [14] = tested on: Klebsiella pneumoniae; test: Antibacterial activity against Klebsiella pneumoniae ATCC 10031 assessed as inhibition in bacterial growth incubated for 20 to 24 hrs by CLSI based broth microdilution method; assay type: functional; details: time 20-24 hrs
# [15] = tested on: Pseudomonas aeruginosa; test: Antibacterial activity against Pseudomonas aeruginosa NCTC 11451 assessed as inhibition in bacterial growth incubated for 20 to 24 hrs by CLSI based broth microdilution method; assay type: functional; details: Pseudomonas aeruginosa, NCTC 11451, time 20-24 hrs; read-out: MIC
# [16] = tested on: Pseudomonas aeruginosa; test: Antibacterial activity against Pseudomonas aeruginosa NCTC 13437 assessed as inhibition in bacterial growth incubated for 20 to 24 hrs by CLSI based broth microdilution method; assay type: functional; details: Pseudomonas aeruginosa, NCTC 13437, time 20-24 hrs; read-out: MIC
# [17] = Stability in human plasma assessed as parent compound remaining after 5 hrs relative to control; assay type: ADME, cell-free; details: read-out: Stability
# [18] = tested on: Klebsiella pneumoniae; test: Antibacterial activity against Klebsiella pneumoniae ATCC 700603 assessed as inhibition in bacterial growth incubated for 20 to 24 hrs by CLSI based broth microdilution method; assay type: functional; details: Klebsiella pneumoniae, ATCC 700603, time 20-24 hrs; read-out: MIC
# [19] = tested on: Klebsiella pneumoniae; test: Antibacterial activity against Klebsiella pneumoniae ATCC BAA-2146 assessed as inhibition in bacterial growth incubated for 20 to 24 hrs by CLSI based broth microdilution method; assay type: functional; details: Klebsiella pneumoniae, ATCC BAA-2146, time 20-24 hrs; read-out: MIC
# [20] = Inhibition of Escherichia coli topoisomerase 4 incubated for 120 mins by Transcreener ADP2 FI assay
# [21] = tested on: Pseudomonas aeruginosa; test: Antibacterial activity against Pseudomonas aeruginosa ATCC 27853 assessed as inhibition in bacterial growth incubated for 20 to 24 hrs by CLSI based broth microdilution method; assay type: functional; details: time 20-24 hrs
# [22] = Stability in rat plasma; assay type: ADME, cell-free
# [23] = target: DNA gyrase (Escherichia coli, UniProt P0AES4+P0AES6); test: Inhibition of Escherichia coli DNA gyrase incubated for 80 mins by Transcreener ADP2 FI assay; assay type: protein-complex assay
# [24] = tested on: Staphylococcus aureus; test: Antibacterial activity against Staphylococcus aureus ATCC 29213 assessed as inhibition in bacterial growth incubated for 20 to 24 hrs by CLSI based broth microdilution method; assay type: functional; details: Staphylococcus aureus, ATCC 29213; time 20-24 hrs; read-out: MIC
# [25] = tested on: Acinetobacter baumannii; test: Antibacterial activity against Acinetobacter baumannii ATCC 19606 assessed as inhibition in bacterial growth incubated for 20 to 24 hrs by CLSI based broth microdilution method; assay type: functional; details: time 20-24 hrs
# [26] = tested on: Escherichia coli; test: Antibacterial activity against Escherichia coli ATCC 35218 assessed as inhibition in bacterial growth incubated for 20 to 24 hrs by CLSI based broth microdilution method; assay type: functional; details: Escherichia coli, ATCC 35218, time 20-24 hrs; read-out: MIC
# [27] = tested on: Acinetobacter baumannii; test: Antibacterial activity against Acinetobacter baumannii ATCC 51432 assessed as inhibition in bacterial growth incubated for 20 to 24 hrs by CLSI based broth microdilution method; assay type: functional; details: Acinetobacter baumannii, ATCC 51432, time 20-24 hrs; read-out: MIC
# [28] = Stability in human plasma; assay type: ADME, cell-free
MIC [2] [µg/mL],MIC [4] [µg/mL],MIC [5] [µg/mL],MIC [6] [µg/mL],MIC [7] [µg/mL],MIC [10] [µg/mL],MIC [13] [µg/mL],MIC [14] [µg/mL],MIC [15] [µg/mL],MIC [16] [µg/mL],MIC [18] [µg/mL],MIC [19] [µg/mL],IC50 [20] [nM],MIC [21] [µg/mL],IC50 [23] [nM],MIC [24] [µg/mL],MIC [25] [µg/mL],Structure (SMILES),inhibition at 1 µM [3] [%],inhibition at 10 µM [8] [%],IC50 [12] [nM],further results
0.25,≤ 0.06,0.125,≤ 0.06,0.125,1,2,≤ 0.06,2,2,2,4,3,0.5,26,0.5,8,CN(C)CC(=O)Nc1cc(F)c2c(c1)CC(CNCCC1CN(c3cnc4c(n3)NC(=O)CO4)C(=O)O1)C2 (stereo not drawn),< 1,< 1,> 20000,Stability [1]: Unstable; remaining at 5 h [9]: 99%; IC20 [11]: > 10000 nM; remaining at 5 h [17]: 76%; Stability [22]: Unstable; MIC [26]: 0.125 µg/mL; MIC [27]: 16 µg/mL; Stability [28]: Unstable
1,0.125,0.25,≤ 0.06,0.25,1,2,≤ 0.06,1,0.5,2,4,6,0.125,17,0.5,16,N#Cc1cc(OCCN)cc2c1CC(CNCCC1CN(c3ccc4c(n3)NC(=O)CO4)C(=O)O1)C2 (stereo not drawn),< 1,< 1,> 20000,IC20 [11]: > 10000 nM; MIC [26]: 0.25 µg/mL; MIC [27]: 16 µg/mL
0.25,≤ 0.06,0.125,≤ 0.06,0.25,0.25,2,≤ 0.06,1,0.5,4,4,23,≤ 0.06,16,0.125,8,CC(C)(N)COc1cc(C#N)c2c(c1)CC(CNCCC1CN(c3ccc4c(n3)NC(=O)CO4)C(=O)O1)C2 (stereo not drawn),3.5,11,> 20000,IC20 [11]: > 10000 nM; MIC [26]: 0.25 µg/mL; MIC [27]: 8 µg/mL
0.125,≤ 0.06,0.25,≤ 0.06,0.125,0.5,2,≤ 0.06,2,2,2,16,8,1,38,0.25,4,C[C@H](C(=O)Nc1cc(F)c2c(c1)CC(CNCCC1CN(c3cnc4c(n3)NC(=O)CO4)C(=O)O1)C2)N(C)C (stereo in doubt; 2e),< 1,< 1,> 20000,"Stability [1]: Stable; IC20 ([12]; human, cho): > 10000 nM; Stability [22]: Stable; MIC [26]: 0.25 µg/mL; MIC [27]: 8 µg/mL; Stability [28]: Stable"
0.125,≤ 0.06,0.25,≤ 0.06,0.25,0.125,1,≤ 0.06,2,1,2,2,39,0.25,47,≤ 0.06,2,CC(N)COc1cc(F)c2c(c1)CC(CNCCC1CN(c3ccc4c(n3)NC(=O)CO4)C(=O)O1)C2 (stereo not drawn),< 1,3.9,> 20000,IC20 [11]: > 10000 nM; MIC [26]: 0.25 µg/mL; MIC [27]: 2 µg/mL
